Assay results: article PMC9684079, “Pharmacological targeting of glutamatergic neurons within the brainstem for weight reduction” (Nature Metabolism, 2022)

Columns and labels:
Test in all cases: biochemical
Set-up in all cases: Cerep/Eurofins selectivity panel, receptors, channels and transporters, per cent inhibition at 10 uM
Details in all cases: read-out: % Inhibition
[1] = molecular target: T1, Serotonin (5-Hydroxytryptamine) 5-HT2B (Homo sapiens, UniProt P41595)
T1 construct: gene HTR2B

Tachykinin NK1 = molecular target: T2, Tachykinin NK1 (Homo sapiens, UniProt P25103)
T2 construct: gene TACR1

GABAB1B = molecular target: T3, GABAB1B (Homo sapiens, UniProt Q9UBS5)
T3 construct: gene GABBR1; isoform 1B

[2] = molecular target: T4, Serotonin (5-Hydroxytryptamine) 5-HT3 (Homo sapiens, UniProt P46098)
T4 construct: gene HTR3A
T4 sequence (P46098 whole entry): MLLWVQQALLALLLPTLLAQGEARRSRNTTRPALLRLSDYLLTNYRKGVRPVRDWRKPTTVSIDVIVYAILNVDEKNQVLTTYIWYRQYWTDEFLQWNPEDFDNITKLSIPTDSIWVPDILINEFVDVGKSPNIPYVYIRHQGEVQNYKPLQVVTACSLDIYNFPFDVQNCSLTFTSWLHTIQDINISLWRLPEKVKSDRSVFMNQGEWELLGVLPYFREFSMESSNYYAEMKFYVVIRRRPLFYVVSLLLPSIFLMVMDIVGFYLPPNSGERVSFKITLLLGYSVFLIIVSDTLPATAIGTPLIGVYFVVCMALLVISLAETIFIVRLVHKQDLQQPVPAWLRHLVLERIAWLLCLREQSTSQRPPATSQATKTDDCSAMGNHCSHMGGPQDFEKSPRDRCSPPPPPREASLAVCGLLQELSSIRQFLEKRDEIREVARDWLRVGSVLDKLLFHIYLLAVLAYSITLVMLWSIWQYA

Tachykinin NK2 = molecular target: T5, Tachykinin NK2 (Homo sapiens, UniProt P21452)
T5 construct: gene TACR2
T5 sequence (P21452 whole entry): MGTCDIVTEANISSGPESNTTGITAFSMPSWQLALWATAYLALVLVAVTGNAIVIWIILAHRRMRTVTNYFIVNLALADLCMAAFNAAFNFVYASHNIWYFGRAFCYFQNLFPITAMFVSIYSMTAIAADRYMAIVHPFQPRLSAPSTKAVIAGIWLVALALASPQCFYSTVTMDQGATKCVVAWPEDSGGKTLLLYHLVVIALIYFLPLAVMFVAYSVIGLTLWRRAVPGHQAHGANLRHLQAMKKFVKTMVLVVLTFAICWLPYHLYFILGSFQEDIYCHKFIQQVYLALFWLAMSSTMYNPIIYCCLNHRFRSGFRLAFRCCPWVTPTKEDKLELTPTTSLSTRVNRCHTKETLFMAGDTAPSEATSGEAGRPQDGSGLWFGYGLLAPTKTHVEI

Adenosine A1 = molecular target: T6, Adenosine A1 (Homo sapiens, UniProt P30542)
T6 construct: gene ADORA1
T6 sequence (P30542 whole entry): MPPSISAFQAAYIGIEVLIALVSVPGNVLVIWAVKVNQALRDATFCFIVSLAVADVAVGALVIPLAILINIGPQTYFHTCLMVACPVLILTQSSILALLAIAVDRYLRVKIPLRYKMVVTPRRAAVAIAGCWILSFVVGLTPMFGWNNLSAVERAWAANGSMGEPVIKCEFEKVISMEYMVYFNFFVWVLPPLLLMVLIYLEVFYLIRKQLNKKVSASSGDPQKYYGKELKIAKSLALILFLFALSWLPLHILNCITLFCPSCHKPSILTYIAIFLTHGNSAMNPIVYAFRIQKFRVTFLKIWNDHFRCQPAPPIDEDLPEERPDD

Bradykinin B2 = molecular target: T7, Bradykinin B2 (Homo sapiens, UniProt P30411)
T7 construct: gene BDKRB2

Tachykinin NK3 = molecular target: T8, Tachykinin NK3 (Homo sapiens, UniProt P29371)
T8 construct: gene TACR3
T8 sequence (P29371 whole entry): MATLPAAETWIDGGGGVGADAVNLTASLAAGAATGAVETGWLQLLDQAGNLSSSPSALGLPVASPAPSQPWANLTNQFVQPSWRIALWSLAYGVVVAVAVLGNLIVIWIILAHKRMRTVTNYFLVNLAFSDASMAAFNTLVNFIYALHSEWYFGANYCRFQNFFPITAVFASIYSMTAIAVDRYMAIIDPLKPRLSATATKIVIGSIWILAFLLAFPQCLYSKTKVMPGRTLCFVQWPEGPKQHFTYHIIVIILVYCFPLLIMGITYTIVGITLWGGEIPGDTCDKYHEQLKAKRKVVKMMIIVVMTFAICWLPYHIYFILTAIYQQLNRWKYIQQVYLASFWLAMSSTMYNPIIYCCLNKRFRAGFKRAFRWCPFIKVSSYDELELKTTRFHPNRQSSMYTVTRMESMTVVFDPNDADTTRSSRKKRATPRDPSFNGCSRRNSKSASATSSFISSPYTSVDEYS

Dopamine D3 = molecular target: T9, Dopamine D3 (Homo sapiens, UniProt P35462)
T9 construct: gene DRD3
T9 sequence (P35462 whole entry): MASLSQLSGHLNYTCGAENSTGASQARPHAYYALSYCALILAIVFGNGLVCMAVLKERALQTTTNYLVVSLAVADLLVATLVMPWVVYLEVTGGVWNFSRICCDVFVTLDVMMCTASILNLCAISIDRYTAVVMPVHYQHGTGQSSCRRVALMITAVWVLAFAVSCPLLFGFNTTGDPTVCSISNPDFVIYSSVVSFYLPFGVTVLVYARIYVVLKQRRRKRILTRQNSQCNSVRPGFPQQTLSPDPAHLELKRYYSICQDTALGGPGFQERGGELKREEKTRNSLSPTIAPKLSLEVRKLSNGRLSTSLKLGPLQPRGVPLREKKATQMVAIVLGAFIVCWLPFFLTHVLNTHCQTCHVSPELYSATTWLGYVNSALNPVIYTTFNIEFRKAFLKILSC

Bradykinin B1 = molecular target: T10, Bradykinin B1 (Homo sapiens, UniProt P46663)
T10 construct: gene BDKRB1

Muscarinic M2 = molecular target: T11, Muscarinic M2 (Homo sapiens, UniProt P08172)
T11 construct: gene CHRM2

Cholecystokinin CCK1 = molecular target: T12, Cholecystokinin CCK1 (Homo sapiens, UniProt P32238)
T12 construct: gene CCKAR

Muscarinic M4 = molecular target: T13, Muscarinic M4 (Homo sapiens, UniProt P08173)
T13 construct: gene CHRM4
T13 sequence (P08173 whole entry): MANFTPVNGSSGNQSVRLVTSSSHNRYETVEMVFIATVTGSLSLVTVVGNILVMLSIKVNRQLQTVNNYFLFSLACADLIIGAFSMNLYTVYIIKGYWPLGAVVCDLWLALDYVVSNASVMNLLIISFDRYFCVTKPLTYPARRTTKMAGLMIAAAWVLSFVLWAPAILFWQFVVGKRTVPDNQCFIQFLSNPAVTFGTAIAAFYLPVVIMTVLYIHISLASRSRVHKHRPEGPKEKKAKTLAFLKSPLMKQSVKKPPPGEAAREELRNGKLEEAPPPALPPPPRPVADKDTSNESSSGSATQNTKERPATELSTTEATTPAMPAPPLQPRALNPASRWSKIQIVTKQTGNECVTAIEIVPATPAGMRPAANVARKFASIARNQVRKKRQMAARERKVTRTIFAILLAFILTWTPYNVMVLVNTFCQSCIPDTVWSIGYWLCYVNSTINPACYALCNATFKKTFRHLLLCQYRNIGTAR

Estrogen ERβ = molecular target: T14, Estrogen ERβ (Homo sapiens, UniProt Q92731)
T14 construct: gene ESR2
T14 sequence (Q92731 whole entry): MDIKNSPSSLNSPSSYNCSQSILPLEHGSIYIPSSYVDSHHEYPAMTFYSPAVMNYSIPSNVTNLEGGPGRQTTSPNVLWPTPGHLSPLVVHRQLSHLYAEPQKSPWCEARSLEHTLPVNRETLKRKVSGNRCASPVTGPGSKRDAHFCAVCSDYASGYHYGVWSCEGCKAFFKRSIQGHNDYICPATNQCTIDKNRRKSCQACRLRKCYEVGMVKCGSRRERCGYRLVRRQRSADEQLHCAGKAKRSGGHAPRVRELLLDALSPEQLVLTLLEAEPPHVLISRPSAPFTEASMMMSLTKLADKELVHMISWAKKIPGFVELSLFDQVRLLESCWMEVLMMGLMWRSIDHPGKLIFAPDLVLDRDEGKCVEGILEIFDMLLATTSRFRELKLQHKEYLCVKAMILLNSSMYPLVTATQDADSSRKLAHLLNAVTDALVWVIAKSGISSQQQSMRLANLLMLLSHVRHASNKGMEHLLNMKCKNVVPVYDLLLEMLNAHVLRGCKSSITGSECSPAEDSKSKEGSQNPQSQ

Vasopressin V2 = molecular target: T15, Vasopressin V2 (Homo sapiens, UniProt P30518)
T15 construct: gene AVPR2
T15 sequence (P30518 whole entry): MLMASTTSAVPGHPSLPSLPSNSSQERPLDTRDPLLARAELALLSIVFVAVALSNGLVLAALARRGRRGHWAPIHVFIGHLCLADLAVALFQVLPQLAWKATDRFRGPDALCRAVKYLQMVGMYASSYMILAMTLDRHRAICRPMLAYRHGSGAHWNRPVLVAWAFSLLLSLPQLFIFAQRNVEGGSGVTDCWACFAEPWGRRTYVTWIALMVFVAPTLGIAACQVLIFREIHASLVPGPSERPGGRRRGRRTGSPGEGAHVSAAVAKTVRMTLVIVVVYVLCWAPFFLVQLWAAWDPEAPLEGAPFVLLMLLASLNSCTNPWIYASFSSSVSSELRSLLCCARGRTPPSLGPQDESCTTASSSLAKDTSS

Muscarinic M1 = molecular target: T16, Muscarinic M1 (Homo sapiens, UniProt P11229)
T16 construct: gene CHRM1

Adrenergic β1 = molecular target: T17, Adrenergic β1 (Homo sapiens, UniProt P08588)
T17 construct: gene ADRB1
T17 sequence (P08588 whole entry): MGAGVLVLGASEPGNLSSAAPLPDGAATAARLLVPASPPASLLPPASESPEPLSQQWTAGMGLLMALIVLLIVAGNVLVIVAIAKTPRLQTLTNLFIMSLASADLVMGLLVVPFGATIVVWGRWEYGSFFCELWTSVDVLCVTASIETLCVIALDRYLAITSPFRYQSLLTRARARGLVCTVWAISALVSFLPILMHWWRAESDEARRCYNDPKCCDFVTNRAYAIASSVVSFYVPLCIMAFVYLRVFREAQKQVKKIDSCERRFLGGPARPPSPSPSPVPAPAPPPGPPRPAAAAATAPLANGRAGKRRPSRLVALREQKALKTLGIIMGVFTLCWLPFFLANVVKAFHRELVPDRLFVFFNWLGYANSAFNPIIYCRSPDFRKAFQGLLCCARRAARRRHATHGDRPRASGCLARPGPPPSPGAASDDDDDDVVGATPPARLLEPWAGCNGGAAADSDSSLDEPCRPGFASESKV

APJ = molecular target: T18, APJ (Homo sapiens, UniProt P35414)
T18 construct: gene APLNR
T18 sequence (P35414 whole entry): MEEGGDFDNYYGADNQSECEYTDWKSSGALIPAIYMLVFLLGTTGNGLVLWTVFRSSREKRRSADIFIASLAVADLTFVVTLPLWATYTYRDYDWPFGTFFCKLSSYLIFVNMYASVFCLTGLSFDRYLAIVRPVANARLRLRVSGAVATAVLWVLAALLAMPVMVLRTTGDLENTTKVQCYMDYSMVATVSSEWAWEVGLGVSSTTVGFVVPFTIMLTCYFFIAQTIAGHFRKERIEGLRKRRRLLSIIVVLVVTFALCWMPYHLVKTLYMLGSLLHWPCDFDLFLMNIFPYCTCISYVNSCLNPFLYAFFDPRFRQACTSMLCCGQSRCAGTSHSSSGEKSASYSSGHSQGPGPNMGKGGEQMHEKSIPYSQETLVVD

GABAB1A = molecular target: T19, GABAB1A (Homo sapiens, UniProt Q9UBS5)
T19 construct: gene GABBR1; isoform 1A

T1 sequence (P41595 whole entry): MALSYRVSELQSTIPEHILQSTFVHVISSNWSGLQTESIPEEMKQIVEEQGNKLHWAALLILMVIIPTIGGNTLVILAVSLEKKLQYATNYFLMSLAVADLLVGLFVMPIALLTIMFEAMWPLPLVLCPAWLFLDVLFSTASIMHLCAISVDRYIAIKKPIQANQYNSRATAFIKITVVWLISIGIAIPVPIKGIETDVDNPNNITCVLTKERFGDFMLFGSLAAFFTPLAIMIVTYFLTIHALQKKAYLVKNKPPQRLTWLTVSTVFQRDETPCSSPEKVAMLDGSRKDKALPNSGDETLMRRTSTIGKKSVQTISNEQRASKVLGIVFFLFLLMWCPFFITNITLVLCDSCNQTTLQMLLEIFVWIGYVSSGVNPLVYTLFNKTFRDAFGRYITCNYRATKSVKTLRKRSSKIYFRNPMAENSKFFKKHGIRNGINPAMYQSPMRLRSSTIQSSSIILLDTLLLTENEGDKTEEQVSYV

Q: What does the source list for `C[C@]1(Nc2cnc(C(F)(F)F)cn2)CCC[C@@H]1NC(=O)c1ncccc1-n1nccn1` [CVN45502]?
A: inhibition at 10 µM [1]: 4%; inhibition at 10 µM (Tachykinin NK1): 12%; inhibition at 10 µM (GABAB1B): -1%; inhibition at 10 µM [2]: -9%; inhibition at 10 µM (Tachykinin NK2): -8%; inhibition at 10 µM (Adenosine A1): 7%; inhibition at 10 µM (Bradykinin B2): -18%; inhibition at 10 µM (Tachykinin NK3): 27%; inhibition at 10 µM (Dopamine D3): -2%; inhibition at 10 µM (Bradykinin B1): 4%; inhibition at 10 µM (Muscarinic M2): -7%; inhibition at 10 µM (Cholecystokinin CCK1): -18%; inhibition at 10 µM (Muscarinic M4): 10%; inhibition at 10 µM (Estrogen ERβ): 4%; inhibition at 10 µM (Vasopressin V2): -4%; inhibition at 10 µM (Muscarinic M1): -1%; inhibition at 10 µM (Adrenergic β1): -14%; inhibition at 10 µM (APJ): -4%; inhibition at 10 µM (GABAB1A): -8%
